In US12325676B2, “Cationic lipid compound and composition for delivery of nucleic acids and use thereof” (Shenzhen Rhegen Biotechnology Co., Ltd., priority 2022, dated 2025):

Test system: BALB/c mice
Experiment: In vivo expression of luciferase mRNA delivered by LNP, lung nebulization
Conditions: LUC-mRNA LNP, 5 μg mRNA, compared with Lipid M and SM-102
Method: LUC-mRNA-lipid nanoparticles containing 5 μg mRNA were administrated via lung nebulization in 6-8 week old BALB/c mice, prepared as in Example 19. 100 μg of D-Luciferin Potassium Salt was injected via tail intravenous injection into the mice at specific time points and assayed using the PerkinElmer Small Animal Imaging System.

## CCCCCCCCSCC(C)C(=O)OCCCCCN(CCO)CCCCCCCC(=O)OC(CCCCCCCC)CCCCCCCC (stereo not shown) [Compound 35]
  fluorescent levels of mRNA expression (FIG. 2): superior to Lipid M and SM-102
